Positions count from the first letter of the chain named. Where “and” joins values, the source holds several entries; their conditions need not be identical. Equal values may be shown once.
How the values were obtained:
[1] = target: T1, hOCT2 WT (Homo sapiens, UniProt O15244); experiment: ASP+ uptake saturation experiments (microfluorimetry), hOCT2 WT; format: cell-based; conditions: hOCT2 WT in stably transfected HEK cells; specific uptake (minus uptake with 1 mM TPA^+); 37 °C, pH 7.4
T1 construct: expressed in transfected cells
T1 sequence (O15244 1-555 S270A): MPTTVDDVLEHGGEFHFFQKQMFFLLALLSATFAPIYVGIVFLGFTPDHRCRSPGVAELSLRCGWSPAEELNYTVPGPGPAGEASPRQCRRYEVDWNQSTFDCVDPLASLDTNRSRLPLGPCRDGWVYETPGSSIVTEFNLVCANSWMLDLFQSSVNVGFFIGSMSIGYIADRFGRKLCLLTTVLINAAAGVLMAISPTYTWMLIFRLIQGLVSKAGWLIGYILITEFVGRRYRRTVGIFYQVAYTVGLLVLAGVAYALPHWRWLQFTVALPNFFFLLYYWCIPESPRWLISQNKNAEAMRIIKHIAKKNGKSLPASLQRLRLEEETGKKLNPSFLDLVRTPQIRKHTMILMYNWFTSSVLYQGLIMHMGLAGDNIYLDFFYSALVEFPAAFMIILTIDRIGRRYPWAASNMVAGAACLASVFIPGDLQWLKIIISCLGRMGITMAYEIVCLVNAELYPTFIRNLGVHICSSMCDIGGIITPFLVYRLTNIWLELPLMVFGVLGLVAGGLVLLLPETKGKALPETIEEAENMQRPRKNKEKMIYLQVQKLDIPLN
Experimental: (§1) Measurement of hOCT2 function in HEK293 cells was performed using microfluorimetry with the fluorescent organic cation 4-(4-(dimethylamino)styryl)-N-methylpyridinium (ASP^+) as the substrate, as described previously in detail. As shown in previous work, this method allows a real-time measurement of the transporter function. The initial rate of ASP^+ uptake was calculated, as it reflects the activity of the transporter.
(§2) Briefly, ASP^+ cellular fluorescence was measured in a microtiterplate reader (Tecan infinite m200; Tecan, Crailsheim, Germany) at 37 °C using an excitation wavelength of 450 nm and an emission of 590 nm. Before fluorescence measurements, cells confluently grown in 96-well plates were washed in ringer-like solution (in mmol/L: 145 NaCl, 1.6 K2HPO4, 0.4 KH2PO4, 5 D-glucose, 1 MgCl2, 1.3 calcium gluconate, pH 7.4). Cell fluorescence was measured before and after ASP^+ addition to the cells. The kinetic characteristics of hOCT WT and hOCT2 Ala270Ser were investigated performing saturation experiments with increasing ASP^+ concentrations. Non-hOCT2-mediated ASP^+ uptake was evaluated in the presence of a huge amount (1 mM) of tetrapentylammonium (TPA^+) and subtracted from the total ASP^+ uptake in order to evaluate the ASP^+ uptake mediated specifically by hOCT2, as shown already in References. […]

[2] = target: T2, hOCT2 WT (Homo sapiens, UniProt O15244, S270A); experiment: as above; format: cell-based; conditions: hOCT2 WT in stably transfected HEK cells; specific uptake
T2 construct: expressed in transfected cells
T2 sequence (O15244 1-555 S270A): T1 sequence (O15244 1-555 S270A)
Experimental: as §1, §2

[3] = target: T3, hOCT2 Ala270Ser (Homo sapiens, UniProt O15244); experiment: ASP+ uptake saturation experiments (microfluorimetry), hOCT2 Ala270Ser; format: cell-based; conditions: hOCT2 Ala270Ser in stably transfected HEK cells
T3 construct: expressed in transfected cells
T3 sequence (O15244 1-555): T1 sequence (O15244 1-555 S270A) with A270S
Experimental: as §1, §2

[4] = target: T1, hOCT2 WT; experiment: Inhibition of ASP+ uptake by competitors, hOCT2 WT; format: cell-based; conditions: 1 µM ASP^+; HEK293 hOCT2 WT cells; 37 °C, pH 7.4; read-out: hOCT2 WT IC50 (apparent affinity, inhibition of ASP^+ uptake)
[5] = target: T2, hOCT2 WT; experiment: Inhibition of ASP+ uptake by competitors, hOCT2 WT; format: cell-based; conditions: 1 µM ASP^+, hOCT2 WT cells; for hOCT2 WT logIC50 ± SEM: log of IC50, in parenthesis in Table 1
[6] = target: T3, hOCT2 Ala270Ser; experiment: Inhibition of ASP+ uptake by competitors, hOCT2 Ala270Ser; format: cell-based; conditions: 1 µM ASP^+; for IC50: HEK293 hOCT2 Ala270Ser cells, 37 °C, pH 7.4, read-out: hOCT2 Ala270Ser IC50 (apparent affinity, inhibition of ASP^+ uptake); for hOCT2 Ala270Ser logIC50 ± SEM: log of IC50, in parenthesis in Table 1
[7] = target: T3, hOCT2 Ala270Ser; experiment: Cellular platinum accumulation by ICP-MS, hOCT2 Ala270Ser cells; format: cell-based; conditions: 2 min incubation with 100 µM cisplatin, mean ± SEM
Experimental: (§3) Intracellular cisplatin concentrations were determined using inductively coupled plasma mass spectrometry (ICP-MS), which provides information on the elemental concentration in samples [27, 28], as described before. To do this, cells were grown for five days on 6-well plates and incubated at 37 °C for 2 min with 2 mL of 100 µM cisplatin freshly prepared in a ringer-like solution. After incubation, cells were rapidly washed with ice-cold PBS and then hypotonically lysed using distilled water and sonication for 15 min. For the ICP-MS analysis, 100 µL of cell lysates together with 100 µL of rhodium standard (Rh 1000 µg/mL, Scpscience, Marktoberdorf, Germany) were mixed with 9.8 mL 2% HNO3. Standard platinum for ICP (Merck) was diluted in 2% HNO3, and linear regression was performed (r² = 0.998 and 0.999). Samples were analyzed using ICP-MS iCap QC, autosampler AccelaAS (Thermo Fisher Scientific, Bremen, Germany) and Qtegra ISDS software (Thermo Fisher Scientific). The protein content of lysed cells was determined by absorption measurements using PicoDrop Pico 1000 (PicoDrop, Saffron Walden, UK).

[8] = system: hOCT2 WT cells; experiment: Cytoviability (MTT) assay, hOCT2 WT cells; format: cell-based, human
Experimental: (§4) The cytotoxicity of cisplatin was evaluated using a modified 3-(4,5-dimethylthiazol-2-yl)-2,5-diphenyltetrazoliumbromid (MTT) assay. The HEK293 cells grown for 24 hours in 96-well plates were incubated for 10 min at 37 °C with different concentrations of cisplatin (Calbiochem, Merck Chemicals GmbH, Darmstadt, Germany) dissolved in a ringer-like solution. The cisplatin solution was then removed, and the cells were grown in fresh medium for 48 hours. Afterwards, the cells were incubated with 10 µL MTT (Sigma, Steinheim, Germany) solution containing 5 mg/mL of the dye for three hours at 37 °C. Then, MTT was removed, and the cells were lysed with a solution containing 10% (w/v) sodium dodecyl sulfate and 40% (v/v) dimethylformamide. After 90 min, absorption was measured at 570 nm in a multiplate reader (Tecan infinite m200, Tecan, Tecan Group Ltd., Crailsheim, Germany).

[9] = system: hOCT2 Ala270Ser cells; experiment: Cytoviability (MTT) assay, hOCT2 Ala270Ser cells; format: cell-based, human
Experimental: as §4

[10] = target: T1, hOCT2 WT; experiment: Cellular platinum accumulation by ICP-MS, hOCT2 WT cells; format: cell-based; conditions: 2 min incubation with 100 µM cisplatin, mean ± SEM
Experimental: as §3

[11] = system: hOCT2 Ala270Ser-mediated ASP^+ uptake; experiment: Rapid regulation of ASP+ uptake, hOCT2 Ala270Ser cells; format: cell-based, human; conditions: 1 µM ASP^+, compared to control
Experimental: (§5) Moreover, since it is known that the activity of hOCT2 can be regulated by several kinases, the effect of the Ala270Ser substitution on regulation by calmodulin and p56^lck tyrosine kinase of hOCT2 was investigated. The regulation by these two pathways is conserved along all the OCTs. To study the rapid regulation of hOCT2, cells were incubated for 10 min at 37 °C with calmidazolium (5 µM), a potent specific inhibitor of calmodulin [24], with aminogenistein (10 µM), a specific inhibitor of p56^lck tyrosine kinase, or with ringer-like solution as a control. Regulators were dissolved in ethanol (calmidazolium) or DMSO (aminogenistein) at a concentration that had no impact on ASP^+ transport. After incubation, fluorescence measurements were carried out with 1 µM ASP^+.

[12] = system: hOCT2 WT-mediated ASP^+ uptake; experiment: Rapid regulation of ASP+ uptake, hOCT2 WT cells; format: cell-based, human; conditions: 1 µM ASP^+, compared to control
Experimental: as §5

[13] = 10 min incubation, then 48 hours in fresh medium
[14] = read-out: EC50 (concentration giving 50% of the toxic effect), MTT assay, 10 min incubation, then 48 hours in fresh medium
[15] = 10 min incubation with 10 µM aminogenistein
[16] = 10 min incubation with 5 µM calmidazolium

| SMILES | IC50 [4] | hOCT2 WT logIC50 ± SEM [5] | IC50 [6] | hOCT2 Ala270Ser logIC50 ± SEM ([6]; hOCT2 Ala270Ser cells) | other results |
| --- | --- | --- | --- | --- | --- |
| CN(C)c1ccc(C=Cc2cc[n+](C)cc2)cc1 [ASP^+, 4-(4-(dimethylamino)styryl)-N-methylpyridinium] |  |  |  |  | Km [1]: 4 ± 1 µM; Vmax of ASP^+ uptake [2]: 516 ± 23 arbitrary units/µg protein s^2; Vmax of ASP^+ uptake ([3]; specific uptake): 484 ± 50 arbitrary units/µg protein s^2; Km ([3]; specific uptake (minus uptake with 1 mM TPA^+), 37 °C, pH 7.4): 4.9 ± 1.6 µM |
| CN/C(=N/CCSCc1nc[nH]c1C)NC#N [Cimetidine, cimetidine] | 23 µM | −4.64 ± 0.12 | 40 µM | −4.40 ± 0.19 |  |
| N.N.[Cl][Pt][Cl] [Cisplatin, cisplatin] | 16 µM | −4.80 ± 0.10 | 9 µM | −5.04 ± 0.11 | Cellular platinum concentration [7]: 221 ± 10 µg Pt/g protein; logEC50 ± SEM, MTT assay [8, 13]: −4.89 ± 0.11; EC50 [8, 14]: 13 µM; logEC50 ± SEM, MTT assay [9, 13]: −4.48 ± 0.05; EC50 [9, 14]: 33 µM; Cellular platinum concentration [10]: 264 ± 10 µg Pt/g protein |
| CN1CC(=O)NC1=N [Creatinine, creatinine] | 18600 µM | −1.73 ± 0.04 | 9800 µM | −2.01 ± 0.06 |  |
| NCCc1c[nH]cn1 [Histamine, histamine] | 4600 µM | −2.33 ± 0.06 | 4000 µM | −2.40 ± 0.07 |  |
| CN(C)CCCN1c2ccccc2CCc2ccccc21 [Imipramine, imipramine] |  | −2.71 ± 0.06 |  |  |  |
| CN(C)C(=N)N=C(N)N [Metformin, metformin] | 900 µM and 868 µM | −3.06 ± 0.05 | 800 µM and 848 µM | −3.07 ± 0.05 |  |
| Cc1ncc(C[n+]2csc(CCO)c2C)c(N)n1 [Thiamin, thiamine] | 87 µM | −4.06 ± 0.05 | 106 µM | −3.98 ± 0.06 |  |
| N[C@@H](Cc1c[nH]c2ccccc12)C(=O)O [Tryptophan, tryptophan] | ~5400 µM | −2.27 ± 0.28 | ~2400 µM | −2.61 ± 0.28 | Inhibition of ASP^+ uptake (in words) [5]: inhibit a small part of the ASP^+ uptake only at very high concentrations; Inhibition of ASP^+ uptake (in words) ([6]; hOCT2 Ala270Ser cells): inhibit a small part of the ASP^+ uptake only at very high concentrations |
| Nc1ccc(-c2cc(=O)c3cc(O)ccc3o2)cc1 [aminogenistein] |  |  |  |  | Effect on hOCT2 Ala270Ser-mediated ASP^+ uptake (inhibition of p56^lck tyrosine kinase) [11, 15]: strong significant inhibition; Effect on hOCT2 WT-mediated ASP^+ uptake (inhibition of p56^lck tyrosine kinase) [12, 15]: strong significant inhibition |
| Clc1ccc(C(c2ccc(Cl)cc2)n2cc[n+](CC(OCc3ccc(Cl)cc3Cl)c3ccc(Cl)cc3Cl)c2)cc1 (stereo not drawn) [calmidazolium] |  |  |  |  | Effect on hOCT2 Ala270Ser-mediated ASP^+ uptake (inhibition of calmodulin) [11, 16]: strong significant inhibition; Effect on hOCT2 WT-mediated ASP^+ uptake (inhibition of calmodulin) [12, 16]: strong significant inhibition |

— paper PMC6843571, “Effects of Single Nucleotide Polymorphism Ala270Ser (rs316019) on the Function and Regulation of hOCT2” (Biomolecules, 2019)
